We go through four compounds from patent US20140037685A1 (priority 2012, published 2014).

Assay [1] concerns Nlrp3. In words: IL-1β release into macrophage supernatants by ELISA. It is filed as cell-based, mouse. The following applies: for Effect of inhibitor on IL-1β secretion/release by all inducers tested: inducers alum, LLOMe, ATP, nigericin, 40 μM Boc-D-CMK or 100 μM CA-074-Me. Here is the method: (§1) FIG. 1A-1B. Alum and LLOMe are poor inducers of inflammasome-associated cytokines. […] Macrophages were then exposed to increasing concentrations of alum, LLOMe, ATP, or nigericin for 4 hours, or alum for 6 hours, in the presence or absence of the 40 μM Boc-D-CMK or 100 μM CA-074-Me. IL-1β release was assessed by ELISA (A), and cell death was determined by CytotoxOne LDH activity assay (B) from supernatants. All PI measurements were taken in triplicate from representative experiment. FIG. 2. Alum and LLOMe cause depletion of caspase-1 and NLR-associated cytokines. […] Lysates were probed for pro-caspase-1, IL-18, and IL-1β, and supernatants were probed for IL-1β by immunoblotting. Data is representative of 3 experiments.
FIG. 6A-6D. LPS triggers strong production of Th1 and Th2-associated IgG subtypes. IgG1 (A) and IgG2c (B) production in C57BL/6 mice 3 weeks after subcutaneous challenge with increasing amounts of LPS. (C) A combination of LPS and ATP triggers a strong IL-1β response in vitro and in vivo. Primary C57BL/6 macrophages were treated with 250 ng/ml LPS or PBS for 2 hours, followed by to 5 mM ATP in the presence or absence of the 40 μM Boc-D-CMK. IL-1β release was assessed by ELISA from supernatants. […] IL-1β production in the intraperitoneal lavage was determined by ELISA 30 min after ATP/PBS challenge.
Cell death assays and ELISAs. Necrosis was assessed by two methods: LDH release assays and propidium iodide (PI) exclusion. […] Fluorescence was measured using a Victor 2 plate reader from Perkin Elmer. LDH release was determined using the CytotoxOne kit from Promega, according to the manufacturer's instructions. […] The enzymatic assay was developed until signal was obtained from a positive control (300 μM hydrogen peroxide) and the reaction was stopped and measured on a Victor 2 plate reader. IL-1β Ready-Set-Go ELISA kits were purchased from eBioscience and were performed according to manufacturer's recommendations. IL-1β concentration was determined at 1:1 and 1:10 to ensure linear range. […] ELISAs were read on a Victor 2 plate reader from Perkin Elmer. […]

Assay [2] relates to pro-caspase-1, IL-18, and IL-1β. It is filed as cell-based, mouse.
In assay [3] the test system is bone marrow-derived murine macrophages. Kind of assay: Necrotic cell death (LDH release / propidium iodide exclusion) in macrophages. The format is cell-based, mouse. As for the experimental part: as §1
Cell death assays and ELISAs. Necrosis was assessed by two methods: LDH release assays and propidium iodide (PI) exclusion. PI exclusion assays were performed in a 96-well flat-bottom plate using phenol-red-free DMEM and added to wells to a final concentration 30 μM 10-min before the specified time point. Fluorescence was measured using a Victor 2 plate reader from Perkin Elmer. LDH release was determined using the CytotoxOne kit from Promega, according to the manufacturer's instructions. […] The enzymatic assay was developed until signal was obtained from a positive control (300 μM hydrogen peroxide) and the reaction was stopped and measured on a Victor 2 plate reader. IL-1β Ready-Set-Go ELISA kits were purchased from eBioscience and were performed according to manufacturer's recommendations. IL-1β concentration was determined at 1:1 and 1:10 to ensure linear range. […] ELISAs were read on a Victor 2 plate reader from Perkin Elmer.
Lysosome-disrupting agents induce potent cell death but poor IL-1β release. […] Towards this, bone marrow-derived murine macrophages were challenged with both lysosome disrupting and pyroptosis-inducing agents and measured the amount of IL-1β and LDH released into the supernatant as complementary read-outs for Nlrp3 activation. […]

Assay [4] has as its system C57BL/6 macrophages. In words: Increasing CA-074-Me concentrations in LLOMe- or nigericin-challenged macrophages (PI exclusion, immunoblot). It is filed as cell-based, mouse.
For another assay, the system named is macrophages. In words: Confocal microscopy of lysosome rupture (fluorescent dextran) and plasma membrane integrity. It is filed as cell-based, mouse. Here is the method:
(§2) FIG. 5A-5C. Lysosome rupture precedes cell death by alum and LLOMe, but not pyroptosis inducers. (A) Confocal microscopy of lysosome rupture in macrophages treated with […], 2.5 mM LLOMe, or 15 μM nigericin in the absence or presence of 100 μM CA-074-Me. The cells were stained with Hoechst (blue), 20 MW FITC-Dextran (green), CellMask Orange (red), TO-PRO-3 (white). 2D-fluorescent intensity plots of FITC-dextran staining of representative cells derived from alum, LLOMe, and nigericin-treated cells. Flow cytometry analysis of LLOMe and LT-treated cells. BALB/c-derived macrophages were exposed to 2.5 mM LLOMe (B) or 500 ng/ml LT (C) and lysosome and membrane integrity were measured using LysoTracker and PI at different time points using flow cytometry.
Cathepsin-dependent lysosome rupture correlates with degradation of inflammatory proteins. […] Lysosome-disrupting agents caused caspase-1-independent cell death and broad protein degradation, while pyroptosis inducers caused caspase-1-dependent cell death and targeted IL-1β secretion. In order to directly investigate the role of lysosome rupture in Nlrp3 activation, two complementary methods were used to analyze lysosome integrity in macrophages challenged with both lysosome-destabilizing agents and potassium-efflux inducers. First, lysosomal integrity was measured by labeling vesicles in the endolysosomal pathway with fluorescent dextran. […] Intriguingly, no plasma membrane impairment (indicative of necrotic cell death) was detectable at this time point, but was observed only 6 hours post alum exposure (FIG. 5A). […] LLOMe destabilized lysosomes within 30 min, without impairment of plasma membranes. A loss of plasma membrane integrity was observed only after 60 min of LLOMe exposure, resulting in dextran release from these cells (FIG. 5A).

Assay [5] relates to Nlrp3. Kind of assay: IL-1β and LDH in intraperitoneal lavage after i.p. challenge. The format is in vivo, mouse. The following applies: C57BL/6 mice, agent injected intraperitoneally (LPS: high concentrations), no ATP. Here is the method:
(§3) FIG. 6A-6D. LPS triggers strong production of Th1 and Th2-associated IgG subtypes. IgG1 (A) and IgG2c (B) production in C57BL/6 mice 3 weeks after subcutaneous challenge with increasing amounts of LPS. (C) A combination of LPS and ATP triggers a strong IL-1β response in vitro and in vivo. Primary C57BL/6 macrophages were treated with 250 ng/ml LPS or PBS for 2 hours, followed by to 5 mM ATP in the presence or absence of the 40 μM Boc-D-CMK. IL-1β release was assessed by ELISA from supernatants. (D) C57BL/6 mice were i.p. primed with 1 ug LPS or PBS for 2 hours, followed by i.p. challenge with 100 mM ATP or PBS. IL-1β production in the intraperitoneal lavage was determined by ELISA 30 min after ATP/PBS challenge.
FIG. 11. Similar in vitro and in vivo profiles of LLOMe and LPS/ATP-treated macrophages. C57BL/6 mice were i.p. primed with 1 μg LPS or PBS for 2 hours, followed by i.p. challenge with 500 μl of PBS containing 100 mM ATP, 2 mM LLOMe, or PBS only. IL-1β production and LDH activity was determined from the intraperitoneal lavage by ELISA 30 min after challenge.
Prototypical Nlrp3 inducers trigger a strong IL-1β in vivo and production of Th1-specific antibodies in vivo. While the substantial difference in Nlrp3-signalling in vitro is shown, it was further chosen to investigate the ability of lysosome-disrupting agents and pyroptosis inducer to activate Nlrp3 in vivo. […]

Assay [6] deals with BALB/c-derived macrophages. In words: Flow cytometry of lysosome and membrane integrity (LysoTracker and PI). The format is cell-based, mouse. As for the experimental part: as §2
To quantify these findings, lysosomal integrity was also analyzed by flow cytometry with the lysosomal pH-indicator LysoTracker and the vital stain propidium iodide (FIG. 5B and C). […] Intriguingly, protein degradation was concurrent with a loss of lysosome integrity 30 to 45 min after LLOMe exposure, and 4-6 hours after alum exposure (FIGS. 5A and 5B).

A further assay has as its system C57BL/6 mice. In words: IgG1 and IgG2c production after immunization of mice. It is filed as in vivo, mouse. The following applies: immunized C57BL/6 mice; LPS 3 weeks after subcutaneous challenge. As for the experimental part:
as §3
It was sought to determine if this difference correlated with the observed difference in in vivo IL-1β activation. To test this hypothesis, C57BL/6 mice were immunized with alum, LLOMe, and LPS.

Assay [7] deals with C57BL/6 macrophages. Kind of assay: 2D-DIGE of the cellular proteome of treated macrophages. The format is cell-based, mouse. The following applies: LPS-primed; 2.5 mM LLOMe or nigericin for 90 minutes. From the text: FIG. 10. 2D-DIGE gel of proteins isolated from untreated, nigericin- and LLOMe-treated macrophages. […] Protein lysates from control, nigericin, and LLOMe treated cells were isolated, and subsequently labeled with Cy2, Cy3 and Cy5, respectively, and separated on a 2D-DIGE gel.
Broad protein degradation mediated by LLOMe—As lysosomal proteases are highly promiscuous, it was reasoned that alum- and LL-mediated lysosomal release of proteolytic proteins may not just degrade Nlrp3-associated proteins, but may also trigger degradation of a broad range of cytosolic proteins, and might go beyond the degradation of inflammatory proteins reported here. To examine effects of LLOMe on the cellular proteome, macrophages were challenged with these compounds and generated lysates. 2D-DIGE was used to determine the extent of damage inflicted in macrophages exposed to the lysosome-disrupting agent, LLOMe. […] These findings further highlight the different impact of lysosome-destabilizing agents and pyroptosis inducers on the cellular proteome on a macro-level.

Setting [8] is: LPS-primed macrophages, 40 μM Boc-D-CMK, LDH assay.

Entries after “also recorded” stand apart in the source; their conditions may differ.

Regarding `CCCNC(=O)[C@H]1O[C@@H]1C(=O)N[C@H](C(=O)N1CCC[C@H]1C(=O)OC)[C@@H](C)CC` [CA-074-Me], in the assay on Nlrp3 [1], the “Effect of inhibitor on IL-1β secretion/release by all inducers tested” value is on record as “blocked”. Besides, in assay [2], the “Effect of inhibitor on alum and LLOMe-mediated drop/degradation of proinflammatory proteins” value is recorded as “prevented the drop; also recorded: blocked”. Also, in assay [3] (alum, LLOMe, ATP, nigericin, 100 μM CA-074-Me), the “Effect of inhibitor on necrotic cell death mediated by all agents/inducers tested” value is “blocked necrosis”. In addition, the “Effect of increasing inhibitor concentrations on cell death and drop in inflammatory proteins in LLOMe-treated macrophages” value in the assay on C57BL/6 macrophages [4] (2.5 mM LLOMe, LPS-primed) was “blocked both, cell death and the drop in inflammatory proteins”. Further, the “Effect of inhibitor (at concentrations that blocked cell death) on release of processed IL-1β by Nlrp3 inducers” value in the assay with C57BL/6 macrophages [4] (nigericin (and ATP), LPS-primed) is recorded as “prevented the release of processed IL-1β”. In the assay on macrophages (100 μM CA-074-Me), the “Effect of inhibitor on lysosomal release of dextran from alum and LLOMe-treated macrophages” value is listed as “blocked”.

With `COC(=O)[C@H](CC(C)C)NC(=O)[C@@H](N)CC(C)C` [LLOMe, Leu-Leu-OMe], in the assay with Nlrp3 [5], the “IL-1β release in vivo” value is “poor release” and the “LDH release in vivo” value was “significant release”. Moreover, the “Time to complete loss of lysosome integrity” value in assay [6] (2.5 mM LLOMe, LysoTracker) was at most 30 min. In addition, in assay [6] (2.5 mM LLOMe, PI), the “Time at which necrotic cell death was observed” value was 60 to 90 min. Besides, in assay [6] (after LLOMe exposure), the “Time of protein degradation concurrent with loss of lysosome integrity” value is 30 to 45 min. In the assay with Nlrp3 [1] (LPS-primed (250 ng/ml, 2 hours) murine macrophages challenged with the inducer, ELISA of supernatants), the IL-1β release result is reported as “only minimal”. Moreover, in the assay on C57BL/6 mice, the “IgG1 / Th2 response” value is on record as “polarized IgG1” and the “IgG2c response (Th1)” value is on record as “little induction”. Also, in [2], the “Cellular pro-caspase-1 levels” value was “significant depletion”; the “Cytosolic levels of IL-18 and IL-1β” value is recorded as “dramatic decrease”; the “Mature caspase-1 (p20) indicative of caspase-1 activation” value was “No mature caspase-1 (p20)”; the “Processing of pro-caspase-1 (p45) into p10 and p20” value was “substantial depletion of p45 without generating the p20 or p10 subunits”. Further, the “Release of mature IL-1β into the supernatant (immunoblot)” value in assay [2] is “no mature IL-1β”. The “Degradation of cellular proteins (2D-DIGE)” value with C57BL/6 macrophages [7] was “broad degradation”. In the assay on macrophages (2.5 mM LLOMe), the “Time at which loss of plasma membrane integrity was observed” value came to 60 min and the “Time to destabilized lysosomes, without impairment of plasma membranes” value is reported as at most 30 min.

For `CO[C@@H]1C[C@@H](C[C@H]2CC[C@H](C)[C@H]([C@@H](C)C(=O)O)O2)O[C@]2(O[C@](C)([C@H]3CC[C@@](C)([C@@H]4O[C@@H]([C@H]5O[C@@](O)(CO)[C@H](C)C[C@@H]5C)C[C@@H]4C)O3)C[C@H]2C)[C@@H]1C` [nigericin, Nigericin], the “Processing of pro-caspase-1 (p45) into p10 and p20” value in assay [2] is “minimal decrease of p45 with a notable increase of p20 or p10”. In addition, the “Degradation of cellular proteins (2D-DIGE)” value with C57BL/6 macrophages [7] was “did not trigger any apparent degradation”. In addition, in the assay with C57BL/6 macrophages [4] (LPS-primed C57BL/6 macrophages (FIG. 4B)), the “Caspase-1 activation and Nlrp3 signaling: mature IL-1β in the supernatant” value was “triggered caspase-1 activation and Nlrp3 signaling”. The “Timing of lysosome impairment relative to cell death” value in the assay with macrophages (nigericin-treated cells (FIG. 5A)) is listed as “occurred only after cell death induction”.

In the case of Boc-D-CMK, in the assay on Nlrp3 [1], the “Effect of inhibitor on IL-1β secretion/release by all inducers tested” value is given as “blocked”. Also, in [3] (setting [8]), the “Effect of inhibitor on alum and LLOMe-induced necrotic cell death” value is reported as “no impact”; the “Effect of inhibitor on cell death mediated by ATP and nigericin” value was “prevented”.
